Measured values published in patent US7842496B2, “Advanced selective plating media” (University of Maryland, priority 2006, dated 2010).
Counter-ions that a name gives are not always drawn.

System: Proteus
Assay: Proteus background growth, plates inoculated with mixed culture of Proteus and Shigella
Assay type: cell-based
Conditions: general statement
Source text: FIG. 6 is a photograph of two plates. The plate on the right is coated with the selective growth media N4 agar of the present invention. The plate on the left is coated with SS agar.
FIG. 7 presents a photograph of two agar coated plates. On the right is a plate coated with a prototype N4 formulation assessing the concentration of NIAPROOF®4 for the suppression of competing, background bacterial growth while allowing good growth of Shigella. The plate on the left is coated with XLD agar. Both plates were inoculated with a mixed culture of Proteus and Shigella organisms and allowed to grow overnight.

CCCCC(CC)CCC(CC(C)C)OS(=O)(=O)O (stereo not shown) [NIAPROOF®4, 7-ethyl-2-methyl-4-undecanol hydrogen sulfate]
Suppression of Proteus spp.: very potent reagent in suppressing Proteus spp.
